≈ marks a conversion by molar mass, not a printed value.
Columns and labels:
Assay type in all cases: physicochemical
[1] = Dissolution study of compound A tablets (solubilizer and glidant study)
[2] = Grinding research of crystal forms (XRPD before and after grinding); settings: ground in a mortar at room temperature
Source text: The solid XRPDs before and after grinding were compared.

[3] = Stability study of the crystal form VI of compound A (high temperature, high humidity, light)
[4] = Dynamic moisture adsorption and desorption analysis (DVS)
Experimental: The instrument model used for dynamic moisture adsorption and desorption analysis was IGA Sorp (Hidentity Isochema). The samples were measured in a gradient mode with a moisture range of 0% to 90%, wherein the humidity increment of each gradient was 10%.

[5] = Solubility study of the starting material (the crystal form I of compound A) in different solvents; settings: in tetrahydrofuran, acetone, 2-butanone, acetonitrile and ethyl acetate
Experimental: About 2 mg of the starting material was weighed and added into a sample bottle, and different solvents were added respectively, until the starting material was dissolved.

[6] = Solubility study in SGF, FaSSIF and FeSSIF (HPLC of filtrate, XRPD of solid)
Experimental: The solubilities of the crystal form I of compound A and the crystal form I of compound A p-toluenesulfonate in SGF (simulated gastric fluid), FaSSIF (fasted state simulated intestinal fluid) and FeSSIF (fed state simulated intestinal fluid) were studied.
The solubilities of samples in SGF, FaSSIF and FeSSIF at 37° C. for 24 hours were determined. 40 mg of the sample was placed in a sample bottle, and 1.5 mL of solvent was added. The mixture was mixed well, and shaken on a shaker at 200 rpm for 24 hours. The suspension was filtered at 0.5, 2 and 24 hours. The filtrate was analyzed by HPLC, and the solid was tested by XRPD.

[7] = Cooling crystallization: solubility of the crystal form I of compound A in heated solvents; settings: organic solvent or mixture, thermodynamic from solid
Experimental: About 30 mg of the crystal form I of compound A was added to different solvents and heated until dissolved. The resulting solution was then slowly cooled to room temperature. PLM and XRPD tests were performed on the resulting solid crystal forms.

[8] = Stability study of the crystal form I of compound A and the crystal form I of compound A p-toluenesulfonate (HPLC, XRPD); settings: 7 days at 40° C./75% RH and 60° C.
Experimental: A certain amount of samples of the crystal form I of compound A and the crystal form I of compound A p-toluenesulfonate (Batch No.: PTSA-A1) were placed in a stability test chamber, and kept at 40° C./75%RH and 60° C. for 7 days, respectively. The samples were tested by HPLC and XRPD at various time points.

[9] = Heating of the crystal form by DSC (solvent removal); settings: heated to 150° C. by DSC
Experimental: The instrument model for differential scanning calorimetry analysis was DSC Q200 or Discovery DSC 250 (TA, USA). Samples were accurately weighed and placed in a punctured sample pot for DSC, and the exact mass of the sample was recorded. The samples were heated to the final temperature (e.g. 300° C. or 350° C.) at a ramp rate of 10° C./min.
The collected crystal form I of compound A was subjected to DSC analysis by General method 4. […] The crystal form I of compound A was heated to 150° C. by DSC and then the solvent was removed.

For `O=C(Nc1ccc(OC(F)(F)Cl)cc1)c1cnc(N2CC[C@@H](F)C2)c(-c2cnccn2)c1` [compound A, (R)-N-(4-(chlorodifluoromethoxy)phenyl)-6-(3-fluoropyrrolidin-1-yl)-5-(pyrazin-2-yl)nicotinamide], the “dissolution of compound A in the formulation” value ([1]; colloidal silica 200 (glidant) added) was “improved” and the “dissolution of compound A in the formulation” value ([1]; increasing amount of sodium lauryl sulfate (solubilizer)) was “decreased”.
In the case of `O=C(Nc1ccc(OC(F)(F)Cl)cc1)c1cnc(N2CC[C@@H](F)C2)c(-c2cnccn2)c1` [crystal form VII of compound A, (R)-N-(4-(chlorodifluoromethoxy)phenyl)-6-(3-fluoropyrrolidin-1-yl)-5-(pyrazin-2-yl)nicotinamide], the “solid form / crystallinity after grinding (XRPD)” value (“solid form / crystallinity” for short) ([2]; listed as crystal form VII) is reported as “transformed into amorphous forms”.
In the case of `O=C(Nc1ccc(OC(F)(F)Cl)cc1)c1cnc(N2CC[C@@H](F)C2)c(-c2cnccn2)c1` [crystal form VI of compound A, (R)-N-(4-(chlorodifluoromethoxy)phenyl)-6-(3-fluoropyrrolidin-1-yl)-5-(pyrazin-2-yl)nicotinamide], the “solid form / crystallinity” value [2] is reported as “slightly decreased”, the “stability (appearance, crystal form and related substances)” value ([3]; 10 days under the condition of light) is reported as “stable” and the “stability (appearance, crystal form and related substances)” value ([3]; 30 days, 60° C., 25° C./92.5%RH, 40° C./75%RH, and light (visible 4500 Lux, near-UV 85µw/cm^2)) is reported as “stable”. For the same molecule, the “crystal form after stability test (XRPD)” value ([3]; high temperature, high humidity, high temperature and high humidity, light) was “not changed”, the water absorption ([4]; 0-80%RH) was 1.1852% and the water absorption ([4]; 0-90%RH) was 1.7452%. For the same molecule, the water absorption ([4]; 10%RH) was 0.1389% and the “crystal form after DVS test (XRPD)” value ([4]; before and after DVS test) was “not changed”.
With `O=C(Nc1ccc(OC(F)(F)Cl)cc1)c1cnc(N2CC[C@@H](F)C2)c(-c2cnccn2)c1` [crystal form I of compound A, (R)-N-(4-(chlorodifluoromethoxy)phenyl)-6-(3-fluoropyrrolidin-1-yl)-5-(pyrazin-2-yl)nicotinamide] the “solubility in solvents (in words)” value [5] was “good solubility”, the “solubility compared with the other form” value ([6]; FeSSIF vehicle, 0.5 and 2 hours, 37° C.) was “higher solubility than that of the p-toluenesulfonate” and the “crystal form of the undissolved solid (XRPD)” value ([6]; SGF, FaSSIF and FeSSIF for 2 hours) was “changed”. The “dependence of solubility on pH” value ([6]; SGF, FaSSIF, FeSSIF, 37° C.) was “affected by pH value”, the Solubility ([7]; ACN, became clear at 50° C.) was 298 mg/mL (≈ 642 mM) and the Solubility ([7]; Acetone, became clear at 50° C.) was 150 mg/mL (≈ 324 mM). For the same molecule, the Solubility ([7]; Isobutanol, became clear at 70° C.) was 10.1 mg/mL (≈ 21.8 mM), the Solubility ([7]; MeOH, became clear at 50° C.) was 34.1 mg/mL (≈ 73.5 mM) and the water absorption ([4]; 0-60%RH) was “about 0.2%”. For the same molecule, the water absorption ([4]; 0-80%RH) was “about 0.7%”, the water absorption ([4]; 0-90%RH) was “about 1.3%” and the “hygroscopicity (DVS)” value ([4]; moisture range 0% to 90%) was “slightly hygroscopic”. For the same molecule, the “crystal form stability (XRPD)” value [8] was “remained unchanged” and the “crystal form after heating and solvent removal” value [9] was “changed into the crystal form VI”.
With `O=C(Nc1ccc(OC(F)(F)Cl)cc1)c1cnc(N2CC[C@@H](F)C2)c(-c2cnccn2)c1` [crystal form III of compound A, (R)-N-(4-(chlorodifluoromethoxy)phenyl)-6-(3-fluoropyrrolidin-1-yl)-5-(pyrazin-2-yl)nicotinamide] the “solid form / crystallinity” value ([2]; listed as crystal form III) was “transformed into amorphous forms”.

— patent US20230322717A1, “SOLID FORM OF PYRAZINE SUBSTITUTED NICOTINAMIDE, AND PREPARATION AND USE THEREOF” (Shenzhen TargetRx, Inc., priority 2020, published 2023)
